Structures are written as SMILES. pIC50: −log10 of the molar value. Where two headings read alike, the source gives them in different places.

Data set [1] concerns macropinocytosis of PAMs. In kind it is cell-based, pigs.
Data set [2] has as its system PI3K/Akt pathway. It is filed as cell-based, pigs.
Data set [3] has as its system ASFV. It is filed as cell-based, African Swine Fever Virus (ASFV).
Data set [4] deals with ASFV. In kind it is cell-based, African Swine Fever Virus (ASFV). The source holds these as a separate data set.
Data set [5] deals with LSDV. It is filed as cell-based, Lumpy Skin Disease Virus (LSDV).
Data set [6] relates to ASFV. Kind of data set: microbe, parasite or virus in culture. In kind it is cell-based. The conditions noted are these: African swine fever virus, MA104, read-out: IC50 against ASFV.
Data set [7] has as its system ASFV. It is filed as cell-based, African Swine Fever Virus (ASFV). The source holds these as a separate data set.
Data set [8] deals with clathrin-mediated endocytosis of PAMs. In kind it is cell-based, pigs.
Data set [9] relates to ASFV. Kind of data set: microbe, parasite or virus in culture. In kind it is cell-based. The conditions noted are these: African swine fever virus, read-out: IC50 against ASFV.
For data set [10], the system named is ASFV. The experiment in a line: microbe, parasite or virus in culture. In kind it is cell-based. The settings on record: African swine fever virus, BMDM, read-out: IC50 against ASFV.
In data set [11] the test system is MDBK cells.
The subject of data set [12] is Vero cells.
Data set [13] concerns IPEC-J2 cells.
In data set [14] the test system is ASFV. In kind it is cell-based, African Swine Fever Virus (ASFV). The source holds these as a separate data set.
Data set [15] has as its system ASFV. In kind it is cell-based, African Swine Fever Virus (ASFV). This is another data set of the same source.
The subject of data set [16] is ASFV. It is filed as cell-based, African Swine Fever Virus (ASFV). This is another data set of the same source.
Data set [17] deals with PEDV. It is filed as cell-based, Porcine Epidemic Diarrhea Virus (PEDV).

For the compound `O=c1cc(N2CCOCC2)oc2c(-c3ccccc3)cccc12` [LY294002], in [1], the “uptake of dextran-Alexa647 by PAMs” value is on record as “no uptake of dextran-Alexa647”. In data set [2], the “phosphorylation of Akt (Western Blot, Fig. 7(B))” value is on record as “completely inhibited”. For the same compound, the “levels of CP204L and B646L” value in data set [3] is “significantly suppressed”. In addition, the “expression of ASFV p72 (Western Blot, Fig. 7(B))” value in data set [4] is recorded as “not detected”.

One may read the pIC50 as the negative decadic logarithm of the IC50, by convention in mol/L. As for `COc1ccc2cc1Oc1ccc(cc1)C[C@H]1c3cc(c(OC)cc3CCN1C)Oc1c(OC)c(OC)cc3c1[C@H](C2)N(C)CC3` [TET, Tetrandrine], in [1], the “Dext (dextran-Alexa647) fluorescence signal, treated versus untreated group” value was “completely disappeared” and the “uptake of dextran-Alexa647 by PAMs” value is reported as “no uptake of dextran-Alexa647”. Also, the “inhibitory effect on LSDV (LSDV 117 protein, Western Blot)” value in data set [5] is given as “dose-dependent inhibitory effect”. Besides, in data set [6], the pIC50 was 6.06. Also, in data set [7], the “ASFV p72 expression level by Western Blot, single-stage treatment” value is listed as “significant reduction in ASFV p72 expression level was observed only during the internalization stage”. Further, in data set [8], the “transferrin-Alexa594 internalization, treated versus untreated group” value is listed as “no significant difference”. Besides, the negative logarithm of the IC50 (pIC50) in [9] is 6.35. In data set [10], the pIC50 is 5.94. Also, the cytotoxicity result in [11] is recorded as “no cytotoxicity”. For the same compound, in data set [12], the cytotoxicity entry is listed as “no cytotoxicity”. For the same compound, the cytotoxicity entry in data set [13] was “no cytotoxicity”. Further, in data set [2], the “phosphorylation of Akt (Western Blot, Fig. 7(B))” value is listed as “partially inhibited” and the “phosphorylation of Akt activated by ASFV internalization” value is reported as “inhibited the phosphorylation of Akt”. In addition, in data set [14], the “ASFV-infected (fluorescent) PAMs by IFA” value is listed as “hardly any fluorescent PAMs were observed”. For the same compound, the “levels of CP204L and B646L” value in data set [3] is on record as “significantly suppressed”. In addition, in [4], the “expression level of ASFV p72 (Western Blot)” value is recorded as “dose-dependent inhibition”; the “expression of ASFV p72 (Western Blot, Fig. 7(B))” value was “not detected”; the “inhibition rate of TET on ASFV compared to the LY294002 control group” value is about 0%; the “level of ASFV-p72 protein (Western Blot)” value is on record as “significantly reduced”. The ASFV infection level entry in [15] is “less than 0.5%”. Further, in [16], the “ASFV infection after co-incubation of TET and ASFV (virucidal effect)” value is given as “did not significantly reduce ASFV infection”. The “inhibitory effect on PEDV (PEDV N protein, Western Blot)” value in data set [17] is “dose-dependent inhibitory effect”.

The values above are taken from article PMC10661491 (Virus Research, 2023).
